Test results as given in patent US20230381168A1, “ADJUNCTIVE THERAPY FOR DEPRESSION” (ANeuroTech IP BV, priority 2020, published 2023).
Entries after “also recorded” stand apart in the source; their conditions may differ.

Columns and labels:
[1] = system: subjects with a medical history of major depressive disorder and current insomnia; assay: cognitive performance by Mini Mental State Examination (MMSE) in treated case subjects PT1-PT3; type: in vivo, human
Protocol: During the last three weeks of this period, the subject was treated with transcranial anodal direct current stimulation (tDCS) in daily sessions of 30 minutes in the morning every day of the week except Saturday and Sunday. The tDCS dose was 2 mA. The anode was placed over the left dorsolateral prefrontal cortex and the cathode was placed over the right dorsolateral prefrontal cortex. […] This combined treatment was continued for a following 3 weeks.

[2] = system: subject with medical history of major depression and severe insomnia; assay: sleep analysis with full PSG battery (EEG, EMG, infra-red video and sound): clinical relevant restlessness events; type: in vivo, human; conditions: PT1, after 3 weeks pipamperone 20 mg/day with tDCS
Source text: While during sleep the subject had no own noise making behaviour with an observed stable background noise level of +/−40 dB in the room, during these events the subject produced clear-cut enhancement of noise in the room with acute values of more than 50 dB combined with observable muscle activity (as observed by the EMG pattern), a state of being awake (as observed by the EEG) and an agitated behaviour (as observed by the clinical inspection infra-red video images).

[3] = system: participants with major depressive disorder on continuing SSRI/SNRI; assay: placebo-controlled crossover study, PROMIS cognitive function questionnaire (subjective cognitive function); type: in vivo, human
Protocol: Eligible participants were admitted to the study center on Day 1 of Period 1 for first dosing. […] The cognitive function was measured using the PROMIS cognitive function questionnaire, completed in the morning, midday and evening. […] A higher T-score reflects a better cognitive functioning of the participant. […] Positive responders were further evaluated for the key secondary objective.

[4] = system: participants with major depressive disorder on continuing SSRI/SNRI; assay: placebo-controlled crossover study, sleep quality questionnaire; type: in vivo, human; conditions: all participants; 14 mg
Protocol: Participants randomized to receive Treatment B were administered placebo containing drinkable water with […] flavor. Each study week the participants received 10 mL of their study medication in an amber glass bottle with dropper containing 200 droplets. […] The sleep quality of the participants was measured using a scale going from very bad (1) to excellent (5). This questionnaire was only completed in the morning.

[5] = system: participants with major depressive disorder on continuing SSRI/SNRI; assay: placebo-controlled crossover study, PROMIS Sleep-related impairments questionnaire; type: in vivo, human
Protocol: Participants randomized to receive Treatment B were administered placebo containing drinkable water with […] flavor. Each study week the participants received 10 mL of their study medication in an amber glass bottle with dropper containing 200 droplets. […] The sleep-related impairments were assessed using the PROMIS Sleep-related impairments questionnaire, completed in the morning, midday and evening. […] A higher T-score reflects more sleep-related impairments during the day.

[6] = system: participants with major depressive disorder on continuing SSRI/SNRI; assay: placebo-controlled crossover study, Karolinska Sleepiness Scale; type: in vivo, human
Protocol: Participants randomized to receive Treatment B were administered placebo containing drinkable water with […] flavor. Each study week the participants received 10 mL of their study medication in an amber glass bottle with dropper containing 200 droplets. […] The sleepiness of the participants was also be measured using the Karolinska Sleepiness Scale going from very sleepy, having great difficulty staying awake, fighting sleep (9) to extremely alert (1). This questionnaire was completed in the morning, midday and evening.

[7] = system: participants with major depressive disorder on continuing SSRI/SNRI; assay: placebo-controlled crossover study, mood questionnaire; type: in vivo, human
Protocol: Participants randomized to receive Treatment B were administered placebo containing drinkable water with […] flavor. Each study week the participants received 10 mL of their study medication in an amber glass bottle with dropper containing 200 droplets. […] The mood of the participants was also be measured using a questionnaire which evaluated going from very happy, relaxed, excited, not worried and fearful at all (1) to very sad, not relaxed and excited at all, extremely worried and fearful (5). This questionnaire was completed in the morning and in the evening.

[8] = system: patients suffering from moderate to severe MDD; assay: double-blind randomized multi-centre study, MADRS assessed by the clinical rater; type: in vivo, human
Protocol: Cognitive enhancement and suicidal thoughts were evaluated respectively according to the Montgomery-Asberg Depression Rating Scale (MADRS) item 6 and item 10, after 10 weeks of study treatment as assessed by the clinical rater. […] Remission rate of reduced ability to read/communicate is defined as a MADRS Item 6 total score at Baseline (Day 1)>3 to (end of) Week 10≤3 at Week 10 as assessed by the clinical rater. […] Change from baseline in total score on MADRS after the indicated period of study treatment as assessed by the clinical rater. […] Remission is defined as a MADRS total score ≤10 at the indicated period as assessed by the clinical rater. An international, double-blind, centrally randomized (stratified), multi-centre study in more than 400 patients suffering from moderate to severe MDD in up to 40 sites in the USA was conducted. […] Study visits were conducted 1, 2, 3, 4, 6, 8 and 10 weeks after study treatment initiation. Possible withdrawal effects were assessed 1 week after study treatment withdrawal. After 2, 3, 4, 6, and 10 weeks, patients were evaluated.

[9] = system: patients suffering from moderate to severe MDD; assay: double-blind randomized multi-centre study, reported side effects (treatment emergent adverse effects); type: in vivo, human
[10] = system: MDD patients on antidepressant (partial responsive depression); assay: analysis of 62 MDD patients treated with adjunctive low-dose pipamperone; type: in vivo, human
D4 receptor = target: T1, D4 receptor (Homo sapiens, UniProt P21917); conditions: cited from earlier work
T1 sequence (P21917 1-419): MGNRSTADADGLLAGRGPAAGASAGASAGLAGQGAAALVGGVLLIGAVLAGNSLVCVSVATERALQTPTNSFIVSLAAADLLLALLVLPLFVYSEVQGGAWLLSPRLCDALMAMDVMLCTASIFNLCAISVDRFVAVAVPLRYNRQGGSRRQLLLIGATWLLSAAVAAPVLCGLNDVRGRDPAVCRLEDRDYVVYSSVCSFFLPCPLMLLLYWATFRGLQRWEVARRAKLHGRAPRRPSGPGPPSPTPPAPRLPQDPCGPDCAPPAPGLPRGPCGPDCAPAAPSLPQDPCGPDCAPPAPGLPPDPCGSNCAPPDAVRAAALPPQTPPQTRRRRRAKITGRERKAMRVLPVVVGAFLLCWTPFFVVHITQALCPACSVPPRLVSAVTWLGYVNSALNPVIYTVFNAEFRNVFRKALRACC

H1 receptor = H1 receptor (Homo sapiens, UniProt P35367); conditions: cited from earlier work
Sequence of H1 receptor (P35367 whole entry): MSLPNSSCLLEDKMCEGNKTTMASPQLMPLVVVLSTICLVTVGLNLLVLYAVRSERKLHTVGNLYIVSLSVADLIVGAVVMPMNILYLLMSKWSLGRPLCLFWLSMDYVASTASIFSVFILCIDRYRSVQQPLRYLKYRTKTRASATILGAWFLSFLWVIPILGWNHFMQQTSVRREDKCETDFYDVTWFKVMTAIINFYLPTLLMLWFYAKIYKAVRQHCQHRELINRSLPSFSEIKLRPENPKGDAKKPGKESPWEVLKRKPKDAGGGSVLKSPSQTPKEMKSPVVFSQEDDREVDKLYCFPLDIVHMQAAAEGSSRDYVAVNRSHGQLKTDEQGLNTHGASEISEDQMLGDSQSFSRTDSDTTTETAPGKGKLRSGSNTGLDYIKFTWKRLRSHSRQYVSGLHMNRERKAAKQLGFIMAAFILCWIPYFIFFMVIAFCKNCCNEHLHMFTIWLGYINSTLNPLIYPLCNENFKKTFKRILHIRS

mACh receptors = conditions: cited from earlier work
[11] = in particular after 6 weeks, even more so after 10 weeks
[12] = prematurely discontinued patients

Compound: NC(=O)C1(N2CCCCC2)CCN(CCCC(=O)c2ccc(F)cc2)CC1 [pipamperone, 1′-[3-(p-fluorobenzoyl)propyl]-[1,4′-bipiperidine]-4′-carboxamide]
- MMSE score ([1]; PT1, after 3 weeks pipamperone 20 mg/day combined with 15 sessions tDCS 2 mA, 27 before treatment): 30
- MMSE total score ([1]; PT1, another 2 months after tDCS was terminated, pipamperone 20 mg/d continued): 30 /30
- MMSE ([1]; PT2 (severe cognitive deterioration, 18/30 before), after 6 weeks of treatment): 17 /30
- MMSE ([1]; PT3 (28/30 before), after treatment): 30 /30
- restored cognitive performance ([1]; PT3, continuous (6 months) intake of low dose pipamperone): sustained
- insomnia [2]: improvement
- reduction of the clinical restlessness events [2]: 75%
- number of clinical restlessness events at night after treatment ([2]; 4 before): 1
- SUBJECTIVE COGNITIVE DECLINE: NON RESPONDER ([3]; 14 mg ad noctum add-on, 6 participants): 17%
- SUBJECTIVE COGNITIVE DECLINE: RESPONDER ([3]; 14 mg ad noctum add-on, 6 participants, Fisher exact test 0.0006, p<0.05): 50%
- subjective cognitive function versus placebo ([3]; 14 mg, 14 days, add-on to SSRI/SNRI): statistical significant (p<0.05) improvement
- improvement of cognitive functioning compared with placebo ([3]; the two participants with high MADRS item 6 score (XR0 and WL4), 14 mg): highest improvement
- sleep quality compared with placebo [4]: better quality of sleep
- Sleep-related impairments, pipamperone 14 mg vs placebo [5]: no clear difference
- Karolinska Sleepiness Scale, pipamperone 14 mg vs placebo [6]: no clear difference
- Mood, pipamperone 14 mg vs placebo [7]: no clear difference
- cognitive enhancement rate (remission of reduced ability to read/communicate, MADRS item 6) compared to citalopram ([8]; after 10 weeks of treatment): superior
- cognitive function (MADRS item 6, change from baseline) compared to citalopram ([8]; after 10 weeks, 15 mg QD): Statistically significant superior effect; also recorded: statistically significant enhancement
- suicidal thoughts (MADRS item 10, change from baseline) compared to citalopram ([8]; after 10 weeks, 15 mg QD): Statistically significant superior effect; also recorded: significant reduction
- decrease of severity of major depressive disorder (MADRS total score) compared to citalopram [8, 11]: superior decrease
- proportion of patients in remission of major depressive disorder (MADRS total score ≤10) compared to citalopram [8, 11]: superior increase
- Decreased Appetite ([9]; all patients): 1.6%
- Diarrhoea ([9]; all patients): 0.5%
- Nausea ([9]; all patients): 7.7%
- Somnolence ([9]; all patients): 6.6%
- side effects overall (treatment emergent adverse effects, TEAE) compared to citalopram ([9]; all patients and prematurely discontinued patients): low amount of side effects
- Decreased Appetite [9, 12]: 0%
- Diarrhoea [9, 12]: 0%
- Nausea [9, 12]: 6%
- Somnolence [9, 12]: 8%
- Vomiting [9, 12]: 0%
- side effects in subjects who discontinued the trial prematurely [9, 12]: significantly fewer side effects
- residual symptoms anhedonia and cognitive impairment ([10]; adjunctive 15 mg daily, MDD remittors): resolved
- patients still responding to adjunctive treatment ([10]; after at least more than 1 year of treatment, n=53 of 62): 85%
- tolerability of the treatment ([10]; long-term adjunctive treatment): extremely good tolerability
- patients in sustained remission ([10]; printed as 'of these responders', n=25): 40%
- cases that went into sustained remission after switch from existing adjunctive treatment ([10]; switched from quetiapine, amisulpride, risperidone or clozapine): 6 out of these 8 cases
- affinity for the D4 receptor over the D2 receptor (D4 receptor): 15 fold
- affinity for the H1 receptor (H1 receptor): low and likely insignificant
- affinity for the mACh receptors (mACh receptors): low and likely insignificant

Compound: CN(C)CCCC1(c2ccc(F)cc2)OCc2cc(C#N)ccc21 (stereo not shown) [Citalopram, citalopram]
- Decreased Appetite ([9]; all patients): 5.7%
- Diarrhoea ([9]; all patients): 9.7%
- Nausea ([9]; all patients): 16%
- Somnolence ([9]; all patients): 11.4%
- Decreased Appetite [9, 12]: 9%
- Diarrhoea [9, 12]: 11%
- Nausea [9, 12]: 18%
- Somnolence [9, 12]: 16%
- Vomiting [9, 12]: 9%
